Data on ten compounds can be found in PubChem BioAssay (NCI).

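These data come from cells grown in 96-well plates and exposed to compound for 48 hours at five concentrations. The concentration for 50% growth inhibition is given as GI50. The concentration for full growth arrest is given as TGI.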 Some results are limits rather than exact numbers.

Holding throughout (assay): growth of human tumour cells (NCI), 48 h
Experiment [1] concerns NCI/ADR-RES ovarian.
The subject of experiment [2] is KM12 colon.
For experiment [3], the system named is MDA-MB-435.
The subject of experiment [4] is M14 melanoma.
The test system of experiment [5] is MDA-MB-231 breast.
In experiment [6] the test system is SNB-19 CNS.
The test system of experiment [7] is HS 578T breast.
Experiment [8] has as its system OVCAR-4 ovarian.

Take `CN1CCC2(CC1)N=C(SCC(=O)Nc1cnc3ccccc3c1)C(c1ccc(Br)cc1)=N2`: the GI50 in experiment [1] is 2.27 µM; in experiment [2] it was 2.62 µM; in experiment [3] it was 1.72 µM; in experiment [4], 1.71 µM; in experiment [5] it was 1.55 µM; in experiment [6], 2.58 µM. For the same compound, the GI50 is 2.23 µM in experiment [7] and 3.52 µM in experiment [8]. Besides, the TGI in experiment [1] came out at 5.76 µM; in experiment [2] it was 6.55 µM; in experiment [3] it was 3.21 µM; in experiment [4] it was 3.16 µM; in experiment [5], 3.23 µM; in experiment [6], 7.83 µM. Also, the TGI in experiment [7] was 7.27 µM; in experiment [8], 15.8 µM.
Regarding `CN1CCN(CCCNC(=O)c2c3c(n4ccccc24)C(=O)c2ncccc2C3=O)CC1`, the GI50 in experiment [1] was 12 µM; in experiment [2], 1.28 µM; in experiment [3], 0.295 µM; in experiment [4], 1.21 µM; in experiment [5] it was 1 µM; in experiment [6], 1.35 µM. Also, the figures for the GI50 in experiment [7] and in experiment [8] were 5.32 µM and 0.413 µM, respectively. Moreover, the TGI in experiment [1] is 64.6 µM; in experiment [2], 19.5 µM; in experiment [3] it was 0.619 µM; in experiment [4] it was 2.6 µM; in experiment [5] it was above 80 µM; in experiment [6] it was 6.09 µM. Besides, the TGI in experiment [7] was found to be 51.8 µM; in experiment [8], 1.56 µM.
As to `Cc1ccc(/C=N/NC(=O)c2ccccc2Oc2ccccc2)o1`, the GI50 was 25.9 µM in experiment [1]; 40 µM in experiment [2]; 34.6 µM in experiment [3]; 40.5 µM in experiment [4]; 32.7 µM in experiment [5]; 48.4 µM in experiment [6]. Moreover, the GI50 in experiment [7] is 46.9 µM; in experiment [8] it was 24.6 µM. The TGI in experiment [1], in experiment [2], in experiment [3], in experiment [4], in experiment [5] and in experiment [6] was above 100 µM throughout. The TGI in experiment [7] and in experiment [8] was above 100 µM throughout.
On to `O=C(O)CCC(c1ccccc1)(c1ccccc1)c1ccccc1`, for which the TGI in experiment [1], in experiment [2], in experiment [3], in experiment [4], in experiment [5] and in experiment [6] was above 100 µM throughout. In addition, the TGI in experiment [7] and in experiment [8] was above 100 µM throughout.
`CC(C)(C)[Si](C)(C)OCC1OC(n2cnc3c(=O)[nH]cnc32)CC1O` (centres undefined): the TGI in experiment [1], in experiment [2], in experiment [3], in experiment [4], in experiment [5] and in experiment [6] was above 100 µM throughout. In addition, the TGI in experiment [7] and in experiment [8] was above 100 µM each time.
`CCN(CC)CCNC(=O)c1cccc2c1-c1ccccc1C2=O`: the GI50 in experiment [1], in experiment [2], in experiment [3], in experiment [4], in experiment [5] and in experiment [6] was above 100 µM in each case. In addition, the GI50 in experiment [7] and in experiment [8] was above 100 µM in each case. Moreover, the TGI in experiment [1], in experiment [2], in experiment [3], in experiment [4], in experiment [5] and in experiment [6] was above 100 µM throughout. For the same compound, the TGI in experiment [7] and in experiment [8] was above 100 µM each time.
In the case of `Cc1ccc(C[As+](c2ccccc2)(c2ccccc2)c2ccccc2)cc1`, the GI50 is 49.1 µM in experiment [1]; 0.385 µM in experiment [2]; 0.552 µM in experiment [3]; 0.704 µM in experiment [4]; 1.46 µM in experiment [5]; 0.978 µM in experiment [6]. The GI50 in experiment [7] is 2.19 µM; in experiment [8] it was 0.778 µM. Besides, the TGI in experiment [1] was above 100 µM; in experiment [2], 4.46 µM; in experiment [3] it was 6.34 µM; in experiment [4] it was 10.8 µM; in experiment [5], 19.6 µM; in experiment [6], above 76.8 µM. Also, the TGI is above 48.8 µM in experiment [7] and above 100 µM in experiment [8].
With `COC(=O)C1C(C(=O)O)C2(c3ccccc3)C(=O)C1(c1ccccc1)C(c1ccccc1)=C2c1ccccc1` (centres undefined), the GI50 in experiment [1] was 18.4 µM; in experiment [2] it was 16 µM; in experiment [3] it was 24.4 µM; in experiment [4], 19.6 µM; in experiment [5] it was 19.4 µM; in experiment [6] it was 11.7 µM. For the same compound, the GI50 in experiment [7] was 23.4 µM; in experiment [8], 15.3 µM. The TGI stood at 34 µM in experiment [1]; 38 µM in experiment [2]; 58.9 µM in experiment [3]; 35.7 µM in experiment [4]; 38.5 µM in experiment [5]; 29.5 µM in experiment [6]. Moreover, the TGI worked out at 58 µM in experiment [7] and 48.3 µM in experiment [8].
For `CCCCC(=O)N(c1ccc(Nc2c3ccccc3nc3cc([N+](=O)[O-])ccc23)cc1)S(C)(=O)=O`, the GI50 in experiment [1] is 27 µM; in experiment [2] it was 2.63 µM; in experiment [3], 18.2 µM; in experiment [4], 11 µM; in experiment [5], 12.8 µM; in experiment [6] it was 7.39 µM. Besides, the GI50 in experiment [7] is 6.15 µM; in experiment [8] it was 11.1 µM. The TGI in experiment [1] is above 100 µM; in experiment [2] it was 19.3 µM; in experiment [3] it was above 93.1 µM; in experiment [4], 33.6 µM; in experiment [5], 49.5 µM; in experiment [6], above 100 µM. For the same compound, the results for the TGI in experiment [7] and in experiment [8] were 48.3 µM and 29.2 µM, respectively.
Regarding `COc1cccc2c1C(=O)c1c(O)c3c(c(O)c1C2=O)C[C@@](O)(/C(CO)=N/NC(=O)CCCCCN1C(=O)C=CC1=O)C[C@@H]3O[C@H]1C[C@H](N)[C@H](O)[C@H](C)O1`, the GI50 was above 100 µM in experiment [1]; 1.98 µM in experiment [2]; 2.03 µM in experiment [3]; 1.06 µM in experiment [4]; 1.96 µM in experiment [5]; 0.465 µM in experiment [6]. Further, the values for the GI50 in experiment [7] and in experiment [8] were 1.69 µM and 2.25 µM, respectively. Also, the TGI in experiment [1] is above 100 µM; in experiment [2] it was above 100 µM; in experiment [3], 13.4 µM; in experiment [4], 11 µM; in experiment [5] it was 44 µM; in experiment [6] it was 11.4 µM. Also, the TGI in experiment [7] came out at 9.64 µM; in experiment [8], 22 µM.
